# Laboratory results from US20170335402A1, “DOT1L INHIBITORS AND USES THEREOF” (Baylor College of Medicine, priority 2014, published 2017).
# “Also recorded” adds a separate entry of the source.
# Key:
# [1] = test system: OCI AML3 subcutaneous tumors; test: Nude rat OCI-AML3 xenograft study, tumor volume; assay type: in vivo; settings: 21 days
# Protocol: (§1) In vivo studies were conducted. Human acute myeloid leukemia cells OCI-AML3 were implanted subcutaneously into the right flank of female athymic nude rats (Hsd:RH-Foxn1rnu, Harlan Laboratories, Inc.). EPZ-5676 was delivered by continuous IV infusion via a catheter surgically implanted in the femoral vein of each rat. Animals were separated into either an efficacy or PK/PD cohort. Both cohorts were dosed by continuous IV infusion with 35 or 70 mg/kg/day. A control group received continuous IV infusion of the vehicle, 5% hydroxypropyl-β-cyclodextrin (HPBCD) in saline. Efficacy was determined after 21 days of drug treatment followed by a 7 day drug holiday. Animals assessed for PK/PD were dosed for 14 days and euthanized following the completion of infusion. All rats were weighed and tumors calipered twice weekly until the end of study. At the completion of the study animals were euthanized by terminal cardiac puncture under isoflurane anesthesia. Euthanized rats were sampled for tumor tissue. Tumors were collected in an RNase-free environment, bisected, snap frozen in liquid nitrogen, pulverized and finally stored at (−80° C.).
# [2] = test system: MEIS1 and HOXB3; test: qRT-PCR of MEIS1 and HOXB3 in OCI AML3 xenograft tumors; assay type: in vivo, nude rat; settings: 21 days
# Protocol: as §1
# For the isolation of RNA, 10 mg of tumor powder was lysed in 600 μL RLT Lysis Buffer (Qiagen) and homogenized with a Qiashredder column (Qiagen, 79656) following the manufacturer's protocol. […] MEIS1 and HOXB3 mRNA levels were assessed and normalized to GAPDH by qRT-PCR.
# [3] = test system: H3K79me2; test: ELISA of H3K79me2 in OCI AML3 xenograft tumors; assay type: in vivo, nude rat
# Protocol: as §1, with “Tumors were collected in an RNase-free environment, bisected, snap frozen in liquid nitrogen, pulverized and finally stored at (−80° C.).” left out
# For isolation of histones from bone marrow, cells were lysed in 250 μL nuclear extraction buffer (10 mM Tris-HCl, 10 mM MgCl2, 25 mM KCl, 1% Triton X-100, 8.6% Sucrose, plus a Roche protease inhibitor tablet 1836145). […] Histones were quantified using the BCA protein assay (Pierce, 23225). […]
# [4] = test system: DNMT3A mutant cells; test: HOX gene expression in DNMT3A mutant cells (FIG. 10); assay type: cell-based, human; settings: FIG. 10, day 6 and day 10 of treatment
# Protocol: RNA was extracted from OCI AML2 and OCI AML3 cells treated with 3 μM EPZ004777 or DMSO control using RNeasy RNA isolation kit (Qiagen) per manufacturer's protocol. RNA was quantified using Nanodrop instrument and 300-1000 ng (equal quantities for EPZ004777 treated and DMSO controls) of RNA were reverse transcribed using the SuperScript® III First-Strand Synthesis System (Invitrogen). Reverse transcription quantitative PCR was then performed in triplicate using predesigned TaqMan primer and probe sets for HOXA9 (Hs00365956_m1), MEIS1 (Hs01017441_m1), HOXB8 (Hs00256885_m1), HOXB3 (Hs01587922_m1), and GAPDH (Hs02758991_ml) (FAM-MGB; Applied Biosystems) for 30 cycles using an AbiPrism 7900HT (Applied Biosystems). Target gene numbers were normalized to the ribosomal RNA 18s (VIC-MGB; Applied Biosystems) and fold-change determined by the 2^−ΔΔCT equation.
# [5] = test system: OCI AML3 cells; test: Annexin V binding (AVB) flow cytometry apoptosis assay; assay type: cell-based, human; settings: increasing concentrations
# Protocol: (§2) For the Annexin V apoptosis assay, 1×10^6 SYC-522-, EPZ004777- or DMSO-treated cells were washed in PBS, resuspended in Ca/HEPES buffer (10 mM HEPES, pH7.4; 140 mM NaCl; 2.5 mM CaCl2) and incubated with Annexin V-APC (BD Pharmingen, San Jose, Calif.) for 30 min then analyzed by flow cytometry.
# (§3) Cells were harvested at each re-plating of the cell proliferation assay described above then split for simultaneous analysis of apoptosis, cell cycle, and differentiation. Apoptosis was determined by Annexin V binding (AVB) flow cytometry assay. The harvested cells were re-suspended in 1×AVB buffer, stained with APC-conjugated Annexin V (BD), then analyzed by flow cytometry. For cell cycle analysis, cells were pelleted, washed in PBS with 0.5% bovine serum albumin, then fixed in 70% ice-cold methanol. The fixed cells were then incubated in PBS with 100 μg/mL RNAse (Invitrogen) for 15 minutes in a 37° C. water bath. Propidium iodide (PI) in PBS at a final concentration of 25 μg/mL was then added and the cells were analyzed by flow cytometry. For differentiation, cells were pelleted, and stained with APC-conjugated CD14 then washed and re-suspended in media containing PI to exclude dead cells. All analyses were performed using an LSR II flow cytometer (BD biosciences) and the data were analyzed using FlowJo (TreeStar, V8.8.7).
# [6] = test system: MV411 cells; test: as above; assay type: cell-based, human; settings: MV4-11; dose-dependent, FIG. 4
# Protocol: as §2, §3
# [7] = test system: OCI AML2 cells; test: as above; assay type: cell-based, human; settings: increasing concentrations
# Protocol: as §2, §3
# [8] = test system: H3K79me2 in OCI AML2 cells; test: Immunoblot analysis of cellular H3K79 methylation; assay type: cell-based, human
# [9] = test system: H3K79me2 in OCI AML3 cells; test: Immunoblot analysis of cellular H3K79 methylation; assay type: cell-based, human
# [10] = test system: OCI AML3 cells; test: Cell differentiation analysis, CD14 flow cytometry; assay type: cell-based, human; settings: dose dependent
# Protocol: (§4) Cell differentiation analysis was performed by staining with fluorescently labeled marker for cell differentiation, CD14 followed by flow cytometry. Propidium iodide was added prior to flow cytometry analysis to exclude dead cells.
# as §3
# [11] = test system: OCI AML2 cells; test: Cell differentiation analysis, CD14 flow cytometry; assay type: cell-based, human; settings: dose dependent
# Protocol: as §4, §3
# [12] = test system: MV4-11 cells; test: Cell proliferation and viability assay (trypan blue exclusion); assay type: cell-based, human; settings: MV4-11 (MLL-rearranged); dose-dependent, FIG. 4
# Protocol: (§5) Patient AML cell lines were plated in media and treated with the DOT1L inhibitors SYC-522, EPZ004777 or DMSO control was added at the indicated concentrations. Cells counted, washed and re-plated in fresh compound at equal densities every 3-4 days for 12 days. Cell growth and viability were followed by serial cell counts and trypan blue exclusion staining.
# (§6) Exponentially growing cells were plated, in triplicate, in 24-well plates at a density of 2×10^5/mL in a final volume of 1 mL. For dose dependent assays, cells were incubated in increasing concentrations of SYC522 up to 10 μM or EPZ004777 up to 24 μM or DMSO control. For time-dependent assays, cells were incubated in 3 μM EPZ004777 or DMSO control. Every 2-3 days media and compound was replaced and cells were split back to a density of 2×10^5/mL. At each re-plating viable cells number was determined by trypan blue exclusion. Total cell number is expressed as split-adjusted viable cells per mL.
# [13] = test system: OCI AML3 cells; test: as above; assay type: cell-based, human; settings: OCI AML3; escalating doses, 10-14 days
# Protocol: as §5, §6
# [14] = test system: OCI AML2 cells; test: as above; assay type: cell-based, human; settings: OCI AML2; escalating doses, 10-14 days
# Protocol: as §5, §6
# [15] = 35 mg/kg/day continuous IV infusion
# [16] = 70 mg/kg/day continuous IV infusion
Structure (SMILES),"tumor growth (tumor volume) [1, 15]","tumor growth (tumor volume) [1, 16]","expression of oncogenic genes including MEIS1 and HOXB3 in tumors [2, 15]","expression of oncogenic genes including MEIS1 and HOXB3 in tumors [2, 16]","H3K79me2 level [3, 15]","H3K79me2 level [3, 16]",oncogenic HOX gene expression [4],induction of apoptosis (Annexin V binding) [5],induction of apoptosis [6],induction of apoptosis (Annexin V binding) [7],cellular H3K79 methylation [8],cellular H3K79 methylation [9],terminal differentiation (CD14 staining) [10],terminal differentiation (CD14 staining) [11],cell proliferation [12],cell growth / proliferation [13],cell growth / proliferation [14]
CC(C)N(C[C@H]1O[C@@H](n2cnc3c(N)ncnc32)[C@H](O)[C@@H]1O)[C@H]1C[C@@H](CCc2nc3cc(C(C)(C)C)ccc3[nH]2)C1 [EPZ-5676],inhibited in a dose dependent fashion,inhibited in a dose dependent fashion reaching statistical significance,repression of oncogenic genes,repression of oncogenic genes,significant reduction of H3K79me2,significant reduction of H3K79me2,,,,,,,,,,,
CC(C)N(CCCNC(=O)Nc1ccc(C(C)(C)C)cc1)CC1OC(n2cnc3c(N)ncnc32)C(O)C1O (centres unmarked) [SYC-522],,,,,,,repressed in a time-dependent fashion,induction of apoptosis,induction of apoptosis,induction of apoptosis,inhibit H3K79 methylation in a time-dependent manner; also recorded: inhibited in a dose- and time-dependent fashion,inhibit H3K79 methylation in a time-dependent manner; also recorded: inhibited in a dose- and time-dependent fashion,terminal differentiation,terminal differentiation,reduction of cell proliferation,decreased proliferation; also recorded: inhibited growth in a dose-dependent fashion,decreased proliferation; also recorded: inhibited growth in a dose-dependent fashion
